Consider 20 compounds from ChEMBL document CHEMBL1146617, “2-Aryl-3,6-dialkyl-5-dialkylaminopyrimidin-4-ones as novel crf-1 receptor antagonists” (Bioorg Med Chem Lett, 2003).

This series is described as follows: in vitro. The following applies: human, microsomes.
Turning to `CCCN(CCC)c1c(C)nc(-c2c(OC)cccc2OC(F)F)nc1O`, the half-life (as a rule, the time in which the quantity being followed falls by half) amounted to 21.6 min. The result for `CCCN(CCC)c1c(C)nc(-c2c(C)cc(C)cc2OC)n(CCF)c1=O` reads 3 min; that for `CCCN(CCC)c1c(C)nc(-c2c(C)cc(C)cc2C)n(C)c1=O`, 4.6 min. The result for `CCCN(CCC)c1c(C)nc(-c2ccc(OC)cc2OC)n(CC2CC2)c1=O` reads 1.5 min; that for `CCCN(CCC)c1c(C)nc(-c2c(OC)cccc2OC)nc1O`, 13.3 min. With `CCCN(CCC)c1c(C)nc(-c2c(C)cc(C)cc2OC)nc1O` the figure was 15.5 min; with `CCCN(CCC)c1c(C)nc(-c2ccc(Cl)cc2Cl)n(CC)c1=O`, 1.9 min; with `CCCN(CCC)c1c(C)nc(-c2ccc(OC)cc2OC)n(CCC)c1=O`, 2.3 min. Consider `CCCN(CCC)c1c(C)nc(-c2ccc(OC)cc2OC)n(CCOC)c1=O`, for which the half-life was determined as 1.3 min. `CCCN(CCC)c1c(C)nc(-c2c(OC)cccc2OC(F)F)n(CC)c1=O`: the half-life came to 1.8 min.

With `CCCN(CCC)c1c(C)nc(-c2ccc(OC)cc2OC)nc1O`, the half-life was 9.4 min.

`CCCN(CCC)c1c(C)nc(-c2c(C)cc(C)cc2OC)n(C)c1=O` returned a half-life of 2.5 min. With `CCCN(CCC)c1c(C)nc(-c2c(C)cc(C)cc2C)nc1O` the figure was 7.5 min; with `CCCN(CCC)c1c(C)nc(-c2c(C)cc(C)cc2OC)n(C(C)C)c1=O`, 2.1 min.

For `CCCN(CCC)c1c(C)nc(-c2c(C)cc(C)cc2OC)n(CCC)c1=O`, the half-life came out at 3 min. The result for `CCCN(CCC)c1c(C)nc(-c2c(C)cc(C)cc2C)n(CCN2CCCC2)c1=O` reads 4.2 min.

For the compound `CCCN(CCC)c1c(C)nc(-c2c(C)cc(C)cc2OC)n(CC(F)(F)F)c1=O`, the half-life stood at 3.4 min. The result for `CCCN(CCC)c1c(CC)nc(-c2c(C)cc(C)cc2OC)n(CC)c1=O` reads 2.3 min. The result for `CCCN(CCC)c1c(CC)nc(-c2c(C)cc(C)cc2OC)[nH]c1=O` reads 8.1 min.

`CCCN(CCC)c1c(C)nc(-c2c(C)cc(C)cc2C)n(CC)c1=O`: the half-life was 3.6 min.
